Laboratory results reported in patent publication US11198695B2, “Fused ring derivative having MGAT-2 inhibitory activity” (Shionogi & Co., Ltd., priority 2017, dated 2021).

What follows are compounds tested against recombinant human MGAT2 (Homo sapiens (Human), UniProt Q3SYC2) (assay: Measurement of human MGAT2 inhibitory activity). Settings: read-out: IC50 (concentration exhibiting 50% enzyme inhibition), Table 52.
Assay type: biochemical
Outline: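 RapidFire ESI-MS read-out of the diolein/diolein-d5 peak ratio gave % inhibition, with no-enzyme and full-enzyme wells as 100% and 0%. Reactions ran 1 h at room temperature at pH 7.4 (phosphate, 2 mmol/L DTT), using Flag-tagged human MGAT2 membranes from Sf9 cells and a substrate solution of 30 μmol/L 2-oleoylglycerol and 10 μmol/L oleoyl-CoA.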

Sequence of recombinant human MGAT2 (Q3SYC2 whole entry): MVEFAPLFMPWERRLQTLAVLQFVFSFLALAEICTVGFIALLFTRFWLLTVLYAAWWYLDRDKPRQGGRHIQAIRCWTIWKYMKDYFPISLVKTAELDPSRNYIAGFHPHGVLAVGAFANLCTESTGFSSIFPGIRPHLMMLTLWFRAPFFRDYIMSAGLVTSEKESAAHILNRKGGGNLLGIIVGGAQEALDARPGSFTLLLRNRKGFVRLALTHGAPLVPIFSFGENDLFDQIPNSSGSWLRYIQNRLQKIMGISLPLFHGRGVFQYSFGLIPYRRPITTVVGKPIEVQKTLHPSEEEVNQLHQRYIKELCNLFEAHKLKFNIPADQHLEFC

Row | IC50 [nM] | SMILES
1 | 160 | COc1cccc(C(=O)Nc2c3c(nn2CCC2CC2)C[C@]2(CCc4cc(OCCCC(F)(F)F)ccc42)NC3=O)c1 [Compound I-17]
2 | 7.6 | O=C1N[C@@]2(CCc3cc(OCC(F)(F)F)ccc32)Cc2nn(CCC3CC3)c(-c3noc(=O)[nH]3)c21 [Compound I-186]
3 | 94 | CS(=O)(=O)CC(=O)Nc1c2c(nn1CCOC(F)(F)F)C[C@]1(CCc3cc(OCCCC(F)(F)F)ccc31)NC2=O [Compound I-60]
4 | 48 | CCCn1nc2c(c1NC(=O)CS(C)(=O)=O)C(=O)N[C@@]1(CCc3cc(OCCCC(F)(F)F)ccc31)C2 [Compound I-54]
5 | 70 | O=C1N[C@@]2(CCc3cc(OCCCC(F)(F)F)ccc32)Cc2nn(CCC3CC3)c(C(=O)O)c21 [Compound I-9]
6 | 210 | Cc1ncc(C(=O)Nc2c3c(nn2CCC2CC2)C[C@]2(CCc4cc(OCC(F)(F)F)ccc42)NC3=O)s1 [Compound I-230]
7 | 400 | O=C1N[C@@]2(CCc3cc(OCC(F)(F)F)ccc32)Cc2nn(CCC3CC3)c(CNS(=O)(=O)CCO)c21 [Compound I-144]
8 | 370 | Cc1cc(C(=O)Nc2c3c(nn2CCC2CC2)C[C@]2(CCc4cc(OCC(F)(F)F)ccc42)NC3=O)ns1 [Compound I-227]
9 | 79 | CS(=O)(=O)CC(=O)Nc1c2c(nn1-c1cccc3c1CCC3)C[C@]1(CCc3cc(OCCCC(F)(F)F)ccc31)NC2=O [Compound I-41]
10 | 400 | CCCCn1nc(NC(=O)CS(C)(=O)=O)c2c1C[C@]1(CCc3cc(OCCCC(F)(F)F)ccc31)NC2=O [Compound I-63]
11 | 34 | COc1ccc(-n2nc3c(c2NC(=O)CS(C)(=O)=O)C(=O)N[C@@]2(CCc4cc(OCC(F)(F)F)ccc42)C3)nc1 [Compound I-262]
12 | 1.9 | CS(=O)(=O)CC(=O)Nc1c2c(nn1-c1ccc(C#N)cn1)C[C@]1(CCc3cc(OCC(F)(F)F)cc(F)c31)NC2=O [Compound I-162]
13 | 6.2 | CS(=O)(=O)CC(=O)Nc1c2c(nn1-c1ccc(F)cc1)C[C@]1(CCc3cc(OCC(F)(F)F)ccc31)NC2=O [Compound I-99]
14 | 180 | Cc1cc(C(=O)Nc2c3c(nn2CCC2CC2)C[C@]2(CCc4cc(OCC(F)(F)F)ccc42)NC3=O)no1 [Compound I-176]
15 | 3.5 | CS(=O)(=O)CC(=O)Nc1c2c(nn1-c1ccc(C(F)(F)F)cn1)C[C@]1(CCc3cc(F)cc(F)c31)NC2=O [Compound I-285]
16 | 16 | CCCCn1nc2c(c1NC(=O)CS(C)(=O)=O)C(=O)N[C@@]1(CCc3cc(OCCCC(F)(F)F)ccc31)C2 [Compound I-51]
17 | 20 | CS(=O)(=O)CC(=O)Nc1c2c(nn1C1CCCCC1)C[C@@]1(CCc3cc(OCC(F)(F)F)ccc31)NC2=O [Compound I-273]
18 | 9.8 | Cc1cccc(-n2nc3c(c2NC(=O)CS(C)(=O)=O)C(=O)N[C@]2(CCc4cc(OCC(F)(F)F)ccc42)C3)c1 [Compound I-267]
19 | 730 | O=C1N[C@@]2(CCc3cc(OCC(F)(F)F)ccc32)Cc2nn(CCC3CC3)c(CNS(=O)(=O)C3CCCC3)c21 [Compound I-140]
20 | 13 | COCCCn1nc2c(c1NC(=O)CS(C)(=O)=O)C(=O)N[C@@]1(CCc3cc(OCC(F)(F)F)ccc31)C2 [Compound I-252]
21 | 580 | Cc1ccccc1Cn1nc(NC(=O)CS(C)(=O)=O)c2c1C[C@]1(CCc3cc(OCCCC(F)(F)F)ccc31)NC2=O [Compound I-75]
22 | 16 | CC(C)(O)c1ccc(-n2nc3c(c2NC(=O)CS(C)(=O)=O)C(=O)N[C@@]2(CCc4cc(OCC(F)(F)F)ccc42)C3)nc1 [Compound I-237]
23 | 110 | CC1(C(=O)NCc2c3c(nn2CCC2CC2)C[C@]2(CCc4cc(OCC(F)(F)F)ccc42)NC3=O)COC1 [Compound I-83]
24 | 9.1 | O=C(Nc1c2c(nn1CCC1CC1)C[C@]1(CCc3cc(OCCCC(F)(F)F)ccc31)NC2=O)c1ccno1 [Compound I-18]
25 | 270 | O=C1N[C@@]2(CCc3cc(OCC(F)(F)F)ccc32)Cc2nn(CCC3CC3)c(CNS(=O)(=O)C3CCOCC3)c21 [Compound I-142]
26 | 17 | CS(=O)(=O)CC(=O)Nc1c2c(nn1-c1ccccn1)C[C@]1(CCc3cc(OCC(F)(F)F)ccc31)NC2=O [Compound I-101]
27 | 49 | N#CCC(=O)Nc1c2c(nn1CCC1CC1)C[C@]1(CCc3cc(OCCCC(F)(F)F)ccc31)NC2=O [Compound I-25]
28 | 1000 | CC(C)(O)c1cccc(-n2nc3c(c2NC(=O)CS(C)(=O)=O)C(=O)N[C@@]2(CCc4cc(OCC(F)(F)F)ccc42)C3)c1 [Compound I-240]
29 | 300 | O=C(NCc1c2c(nn1CCC1CC1)C[C@]1(CCc3cc(OCC(F)(F)F)ccc31)NC2=O)c1ccno1 [Compound I-152]

Same assay, conditions: read-out: IC50 (concentration exhibiting 50% enzyme inhibition), Table 53

Row | IC50 [nM] | SMILES
30 | 11.5 | CS(=O)(=O)CC(=O)Nc1c2c(nn1-c1ccc(C#N)c(F)c1)C[C@]1(CCc3cc(OCC(F)(F)F)ccc31)NC2=O [II-104]
31 | 8.7 | CS(=O)(=O)CC(=O)Nc1c2c(nn1-c1ccc(C#N)cn1)C[C@]1(CCc3cc(Br)ccc31)NC2=O [II-30]
32 | 420 | COc1nccc(NCc2c3c(nn2CCC2CC2)C[C@@]2(CCc4cc(OCC(F)(F)F)ccc42)NC3=O)n1 [II-68]
33 | 10.2 | N#CCNC(=O)c1c2c(nn1-c1ccc(C#N)cn1)C[C@]1(CCc3cc(OCC(F)(F)F)ccc31)NC2=O [II-128]
34 | 9.5 | COCCCn1nc2c(c1NC(=O)CS(C)(=O)=O)C(=O)N[C@@]1(CCOc3cc(OCC(F)(F)F)ccc31)C2 [II-26]
35 | 3.09 | Cc1ccc(-n2nc3c(c2NC(=O)CS(C)(=O)=O)C(=O)N[C@](C)(c2ccc(OCC(C)(F)F)cc2F)C3)nc1 [II-208]
36 | 1 | CS(=O)(=O)CC(=O)Nc1c2c(nn1CCCOC(F)(F)F)C[C@@]1(CCc3cc(OCCCC(F)(F)F)ccc31)NC2=O [II-277]
37 | 17 | CS(=O)(=O)CC(=O)Nc1c2c(nn1CCC1CC1)C[C@@]1(CCc3cc(NC4CC(F)(F)C4)ccc31)NC2=O [II-32]
38 | < 1 | CS(=O)(=O)CC(=O)Nc1c2c(nn1CCCOC(F)(F)F)C[C@@]1(CCOc3cc(CCC(F)(F)F)ccc31)NC2=O [II-280]
39 | 3.69 | N#Cc1ccc(-n2nc3c(c2NC(=O)C2CS(=O)(=O)C2)C(=O)N[C@@]2(CCc4cc(OCC(F)(F)F)ccc42)C3)nc1 [II-72]
40 | 12 | CS(=O)(=O)CC(=O)Nc1c2c(nn1CCCCC(F)(F)F)C[C@@]1(CCc3cc(OCC(F)(F)F)ccc31)NC2=O [II-19]
41 | 5.86 | Cc1ccc(-n2nc3c(c2NC(=O)CS(C)(=O)=O)C(=O)N[C@](C)(c2ccc(N4CC(F)(F)C4)cc2F)C3)nc1 [II-177]
42 | 6.1 | CS(=O)(=O)CC(=O)Nc1c2c(nn1-c1ccc(C#N)cn1)C[C@]1(CCc3c1ccc(OCC(F)(F)F)c3F)NC2=O [II-163]
43 | 0.409 | CC(C)(C)c1cc(-n2nc3c(c2NC(=O)CS(C)(=O)=O)C(=O)N[C@@]2(CCOc4cc(OCC(F)(F)F)ccc42)C3)no1 [II-257]
44 | 4.03 | CS(=O)(=O)CC(=O)Nc1c2c(nn1-c1ccc(C#N)cn1)C[C@]1(CCc3cc(C(F)(F)F)ccc31)NC2=O [II-142]
45 | 5.26 | CS(=O)(=O)CC(=O)Nc1c2c(nn1-c1ccc(C(F)F)cc1)C[C@]1(CCc3cc(N4CC(F)(F)C4)ccc31)NC2=O [II-287]
46 | 3.48 | N#Cc1ccc(-n2nc3c(c2C(=O)NCC2(C(F)F)CC2)C(=O)N[C@@]2(CCc4cc(OCC(F)(F)F)ccc42)C3)nc1 [II-192]

Row | IC50 [nM] | SMILES
47 | 1.34 | CNS(=O)(=O)CC(=O)Nc1c2c(nn1-c1ccc(C)cn1)C[C@]1(CCOc3cc(OCC(F)(F)F)ccc31)NC2=O [II-271]
48 | 2.64 | CS(=O)(=O)CC(=O)Nc1c2c(nn1-c1ccc(F)c(F)c1)C[C@]1(CCOc3cc(OCC(F)(F)F)ccc31)NC2=O [II-67]
49 | 32 | CS(=O)(=O)CC(=O)Nc1c2c(nn1CCn1cccn1)C[C@@]1(CCc3cc(OCC(F)(F)F)ccc31)NC2=O [II-22]
50 | 59.5 | Cc1ccc(-n2nc3c(c2C(=O)NS(=O)(=O)Cc2ccccc2)C(=O)N[C@@]2(CCc4cc(OCC(F)(F)F)ccc42)C3)nc1 [II-213]
51 | 2.79 | N#Cc1ccc(-n2nc3c(c2NC(=O)C2CCS(=O)(=O)C2)C(=O)N[C@@]2(CCc4cc(OCC(F)(F)F)ccc42)C3)nc1 (stereo partly drawn) [II-91]
52 | 130 | N#Cc1ccc(-n2nc3c(c2C(=O)N[C@H]2CC[C@H](O)CC2)C(=O)N[C@@]2(CCc4cc(OCC(F)(F)F)ccc42)C3)nc1 [II-130]
53 | 38 | CS(=O)(=O)CC(=O)Nc1c2c(nn1-c1ccc(C#N)cn1)C[C@](c1ccc(OCC(F)(F)F)cc1)(C(F)(F)F)NC2=O [II-17]
54 | < 1 | Cc1cc(-n2nc3c(c2NC(=O)CS(C)(=O)=O)C(=O)N[C@](C)(c2ccc(CCC(F)(F)F)cc2F)C3)no1 [II-300]
55 | 30 | CSCC(=O)Nc1c2c(nn1CCC1CC1)C[C@]1(CCc3cc(OCC(F)(F)F)ccc31)NC2=O [II-38]
56 | 477 | CS(C)(=O)=NCCNC(=O)c1c2c(nn1-c1ccc(C#N)cn1)C[C@]1(CCc3cc(OCC(F)(F)F)ccc31)NC2=O [II-182]
57 | 5.26 | CS(=O)(=O)CC(=O)Nc1c2c(nn1-c1cc(C(F)(F)F)on1)C[C@]1(CCOc3cc(OCC(F)(F)F)ccc31)NC2=O [II-256]
58 | 40 | CC(C)OC1CN(c2ccc3c(c2)CC[C@@]32Cc3nn(CCC4CC4)c(NC(=O)CS(C)(=O)=O)c3C(=O)N2)C1 [II-41]
59 | 37 | Cc1ccc(-n2nc3c(c2C(=O)NCC#N)C(=O)N[C@@]2(CCOc4cc(OCC(F)(F)F)ccc42)C3)nc1 [II-228]
60 | 22.3 | Cc1ccc(-n2nc3c(c2C(=O)NCCS(N)(=O)=O)C(=O)N[C@@]2(CCOc4cc(OCC(F)(F)F)ccc42)C3)nc1 [II-204]
61 | 1.17 | Cc1cc(-n2nc3c(c2NC(=O)CS(C)(=O)=O)C(=O)N[C@@]2(CCOc4cc(C5CC5)ccc42)C3)no1 [II-235]
62 | 8.32 | Cc1ccc(-n2nc3c(c2NC(=O)CS(C)(=O)=O)C(=O)N[C@](C)(c2ccc(Cl)cc2F)C3)nc1 [II-176]
63 | 60.3 | N#Cc1ccc(-n2nc3c(c2C(=O)NCCOC(F)(F)F)C(=O)N[C@@]2(CCc4cc(OCC(F)(F)F)ccc42)C3)nc1 [II-114]
